Key:
[1] = Partition coefficient (logD7.4); settings: octanol/water, pH 7.4
[2] = target: T1, Cyclooxygenase (Bos taurus, UniProt O62664+O62698)
T1 sequence (O62664 whole entry): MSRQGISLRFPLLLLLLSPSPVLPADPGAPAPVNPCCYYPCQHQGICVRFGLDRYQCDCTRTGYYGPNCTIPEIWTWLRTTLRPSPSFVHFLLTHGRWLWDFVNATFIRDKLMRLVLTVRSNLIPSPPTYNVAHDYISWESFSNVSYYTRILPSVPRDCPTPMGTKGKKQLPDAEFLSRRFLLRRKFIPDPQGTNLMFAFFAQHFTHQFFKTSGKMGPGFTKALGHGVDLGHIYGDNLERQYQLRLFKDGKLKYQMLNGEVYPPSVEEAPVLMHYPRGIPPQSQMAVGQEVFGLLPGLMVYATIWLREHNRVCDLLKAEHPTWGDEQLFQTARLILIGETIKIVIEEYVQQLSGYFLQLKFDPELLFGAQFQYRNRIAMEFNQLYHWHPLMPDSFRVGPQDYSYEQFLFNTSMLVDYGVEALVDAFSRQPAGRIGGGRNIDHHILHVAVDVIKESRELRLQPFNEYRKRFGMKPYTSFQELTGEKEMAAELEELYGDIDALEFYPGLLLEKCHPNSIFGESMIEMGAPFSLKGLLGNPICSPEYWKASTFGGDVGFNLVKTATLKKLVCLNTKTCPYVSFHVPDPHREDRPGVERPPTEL
T1 sequence (O62698 whole entry): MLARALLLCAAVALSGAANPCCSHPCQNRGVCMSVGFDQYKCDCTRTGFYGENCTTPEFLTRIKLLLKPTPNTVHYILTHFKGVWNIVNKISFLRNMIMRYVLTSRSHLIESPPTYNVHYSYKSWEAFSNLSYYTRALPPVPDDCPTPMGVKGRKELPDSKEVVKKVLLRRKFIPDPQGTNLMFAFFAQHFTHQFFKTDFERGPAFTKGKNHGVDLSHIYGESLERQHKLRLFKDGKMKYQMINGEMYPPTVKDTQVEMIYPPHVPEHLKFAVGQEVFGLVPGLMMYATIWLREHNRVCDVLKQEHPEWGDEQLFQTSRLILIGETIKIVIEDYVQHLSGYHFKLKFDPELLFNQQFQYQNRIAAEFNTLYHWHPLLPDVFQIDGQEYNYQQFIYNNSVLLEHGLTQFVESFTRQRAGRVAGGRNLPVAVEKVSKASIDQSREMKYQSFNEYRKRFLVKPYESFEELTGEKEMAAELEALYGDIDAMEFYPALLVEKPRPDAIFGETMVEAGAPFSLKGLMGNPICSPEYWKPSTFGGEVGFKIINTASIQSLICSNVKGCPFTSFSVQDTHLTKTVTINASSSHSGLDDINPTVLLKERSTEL
Description: In vitro inhibition of bovine prostaglandin G/H synthase, using bovine seminal vesicle microsomal preparations; IC50 in umol/L

[3] = Dissociation constant (pKa); format: physicochemical
[4] = species on record: Rattus norvegicus
Description: Inhibition of inflammatory hind paw edema, induced by Mycobacterium butyricum in rats; ED40 in umol/kg po

| Structure (SMILES) | logD [1] | log IC50 [2] | pKa [3] | Log 1/ED40 [4] |
| --- | --- | --- | --- | --- |
| O=C(O)Cc1ccccc1Nc1cccc(Cl)c1Cl | 1.66 | 1 | 4.2 |  |
| O=C([O-])Cc1ccccc1Nc1c(Cl)cccc1Br.[Na+] | 1.44 | 0.28 | 4.2 | -0.14 |
| Cc1cc(C)c(C)c(Nc2ccccc2CC(=O)O)c1C | 1.95 | 0.78 | 4.2 | -1.25 |
| Cc1cccc(Nc2ccccc2CC(=O)O)c1C | 1.03 | 0.3 |  | -1.59 |
| O=C(O)Cc1ccccc1Nc1cc(Cl)cc(Cl)c1 | 1.98 | 1.9 | 4.31 | -2.23 |
| O=C(O)Cc1ccccc1Nc1ccc(Cl)cc1Cl | 1.33 | 1.85 |  | -1.23 |
| Cc1cccc(Nc2ccccc2CC(=O)O)c1Cl | 1.59 | 1.3 |  | -0.26 |
| O=C([O-])Cc1ccccc1Nc1c(F)cccc1F.[Na+] | 0.26 | 2.36 | 4.09 | -2.24 |
| COc1cc(Cl)c(Nc2ccccc2CC(=O)O)c(Cl)c1 | 1.24 | 0 | 4.2 | -0.49 |
| Cc1cc(C)c(C)c(Nc2ccc(Cl)cc2CC(=O)O)c1C | 2.93 | 1.82 |  | -1.2 |
| Cc1ccc(Cl)c(Nc2ccccc2CC(=O)[O-])c1Cl.[Na+] |  |  |  | -0.65 |
| O=C([O-])Cc1ccccc1Nc1c(Cl)cc(F)cc1Cl.[Na+] | 1.27 | 0.05 |  | -0.47 |
| COc1c(O)cc(Cl)c(Nc2ccccc2CC(=O)O)c1Cl | 0.51 | 1.86 |  | -2.47 |
| Cc1cccc(Cl)c1Nc1ccccc1CC(=O)O | 1.17 | 0 | 4.2 | -0.74 |
| CCc1cccc(CC)c1Nc1ccccc1CC(=O)O | 1.91 | 1.83 |  | -1.55 |
| Cc1cccc(C)c1Nc1ccccc1CC(=O)O | 1.21 | 0.78 | 4.07 | -0.29 |
| COc1ccc(Cl)c(Nc2ccccc2CC(=O)O)c1Cl | 1.18 | 1.04 | 3.95 | -0.96 |
| O=C(O)Cc1ccccc1Nc1c(Cl)cccc1I | 1.64 | 0.3 | 4.24 | -0.11 |

| Structure (SMILES) | logD [1] | log IC50 [2] | pKa [3] | Log 1/ED40 [4] |
| --- | --- | --- | --- | --- |
| O=C(O)Cc1ccccc1Nc1ccc(Cl)c(Cl)c1 | 1.8 | 2.15 | 4.3 | -2.53 |
| O=C([O-])Cc1ccccc1Nc1c(F)cccc1Cl.[Na+] | 0.56 | 1.75 |  | -0.8 |
| O=C([O-])Cc1cc(F)ccc1Nc1c(Cl)cccc1Cl.[Na+] | 1.48 | 0.13 | 4.02 | 0.05 |
| O=C([O-])Cc1cc(Cl)ccc1Nc1c(Cl)cccc1Cl.[Na+] | 1.97 | 0.1 |  | 0.07 |
| O=C([O-])Cc1ccccc1Nc1ccc(F)cc1F.[Na+] | 0.55 | 2.01 |  | -2.85 |
| Cc1c(Cl)cccc1Nc1ccccc1CC(=O)O | 1.54 | 1.04 | 4.3 | -0.86 |
| O=C(O)Cc1c(Br)cccc1Nc1c(Cl)cccc1Cl | 1.87 | 1.18 |  | -3.43 |
| O=C(O)Cc1ccccc1Nc1ccccc1Cl | 0.91 | 2.31 |  | -1.76 |
| O=C([O-])Cc1c(O)cccc1Nc1c(Cl)cccc1Cl.[Na+] | 1.73 | 2.33 | 4.48 |  |
| O=C([O-])Cc1cc(F)ccc1Nc1c(Cl)cc(F)cc1Cl.[Na+] | 1.62 | 0.25 |  | 0.25 |
| O=C(O)Cc1ccccc1Nc1cc(Cl)ccc1Cl | 1.64 | 2 | 4.1 | -1.01 |
| O=C(O)Cc1ccccc1Nc1ccccc1 | 0.19 | 2.46 | 4.1 | -2.94 |
| COc1cc(Cl)c(Nc2ccccc2CC(=O)O)c(Cl)c1O [3'-HYDROXY-4'-METHOXY-DICLOFENAC] | 0.25 | 2.47 | 4.13 | -2.47 |
| O=C(O)Cc1ccccc1Nc1c(Cl)ccc(O)c1Cl [3'-HYDROXY-DICLOFENAC] | 0.72 | 1 |  | -1.51 |
| O=C(O)Cc1cc(O)ccc1Nc1c(Cl)cc(O)cc1Cl [4',5-DIHYDROXY-DICLOFENAC] | 0.27 | 3.04 |  | -2.78 |
| O=C(O)Cc1ccccc1Nc1c(Cl)cc(O)cc1Cl [4'-HYDROXY-DICLOFENAC] | 0.7 | 2.15 | 4.4 | -0.98 |
| O=C(O)Cc1cc(O)ccc1Nc1c(Cl)cccc1Cl [5-HYDROXY-DICLOFENAC] | 0.76 | 3.35 | 4.22 | -0.98 |
| COc1ccc2c(c1)c(CC(=O)O)c(C)n2C(=O)c1ccc(Cl)cc1 [INDOMETHACIN] | 1 |  |  |  |
